# Experimental data as given in article PMC11232109, “Synthesis, anticancer evaluation of novel hybrid pyrazole-based chalcones, molecular docking, DNA fragmentation, and gene expression: in vitro studies” (RSC Advances, 2024).
# Tested on: BJ1 (normal skin fibroblasts)
# Test: MTT assay, normal cell line BJ1
# Type: cell-based
# Conditions: Skin fibroblast, 48 hours
# Description: The percentage of the cell viability treated with the newly synthesized compounds was evaluated using MTT assay (3-(4,5-dimethylthiazol-2-yl)-2,5-diphenyl tetrazolium bromide). All the subsequent steps were done in a sterile Laminar flow class II biosafety cabinet (Baker, SG406INT, Sanford, ME, USA). DMEM was used as a suspension medium for breast cancer (MCF7), prostate cancer (PC3), and pancreatic cancer (PACA2), while normal cell line (BJ1) was suspended in DMEM-F12 medium, a 1% antibiotic-antimycotic mixture (10 000 U ml^−1 potassium penicillin, 10 000 μg ml^−1 streptomycin sulfate, and 25 μg ml^−1 amphotericin B), and 1% L-glutamine at 37 °C under 5% CO2.
# Cells were cultured for 10 days and then seeded at a concentration of 10 × 10^4 cells per well in fresh complete growth medium in 96-well microtiter plastic plates at 37 °C for 24 hours under 5% CO2 using a water-jacketed carbon dioxide incubator (Sheldon, TC2323). Media were aspirated, serum-free fresh medium was added, and cells were incubated either alone (negative control) or with different concentrations of the synthesized chalcone derivatives to a final concentration of (100–50–25–12.5–6.25–3.125–0.78 and 1.56 μg ml^−1). After incubation for 48 hours, the medium was aspirated and 40 μl of MTT salt ([…]) was added to each well and incubated for another four hours at 37 °C under 5% CO2. To stop the reaction and dissolve the formed crystals, 200 μl of 10% sodium dodecyl sulfate (SDS) in deionized water was added to each well and incubated overnight at 37 °C.
# The absorbance was then measured at 595 nm and a reference wavelength of 620 nm using a microplate multi-well reader (Bio-Rad Laboratories Inc., model 3350). Statistical significance was tested between the samples and the negative control (cells with vehicle) using an independent t-test using the SPSS 11 program. DMSO was the vehicle used for the dissolution of the synthesized chalcones, and its final concentration on the cells was less than 0.2%. The percentage of change in viability was calculated according to the formula: ((reading of extract/reading of negative control) − 1) × 100. A Probit analysis was carried out for the determination of IC50 using the SPSS 11 program.
smiles,measurement,value
"COc1cccc2c1C(=O)c1c(O)c3c(c(O)c1C2=O)C[C@@](O)(C(=O)CO)C[C@@H]3O[C@H]1C[C@H](N)[C@H](O)[C@H](C)O1 [Doxorubicin, reference compound]",IC50,13.6 ± 0.28 µM
